Reference: article PMC6585621 (Clinical Pharmacology and Therapeutics, 2018)
Where two headings read alike, the source gives them in different places.

What was measured:
[1] = cited from earlier work
[2] = in humans; cited from earlier work
[3] = Pharmacokinetics of clopidogrel and its metabolites with and without ritonavir; type: in vivo, human; details: for C max / AUC0‐4h / AUC0‐∞ / t ½ / t max / AUC / half-life: after clopidogrel 300 mg oral; for C max / AUC0‐4h / AUC0‐∞ / t ½ / AUC / half-life / Clopidogrel active metabolite: clopidogrel AUC0‐∞ ratio: geometric mean (geometric CV); for t max: median (range); for half-life: t ½
[4] = type: in vivo, human; details: for t ½ / t max / M1:dasabuvir AUC0‐23h ratio / M1:dasabuvir AUC0‐∞ ratio: after dasabuvir 250 mg oral; for t ½ / M1:dasabuvir AUC0‐23h ratio / M1:dasabuvir AUC0‐∞ ratio: geometric mean (geometric CV); for effect of ritonavir on pharmacokinetics compared to pretreatment with placebo: ritonavir 100 mg twice daily; for t max: median (range)
CYP3A4 = details: in the absence of ritonavir; cited from earlier work
[5] = cited from earlier work; remark: listed apart in the source
platelet aggregation = details: clopidogrel 300 mg, arithmetic mean (SD)
[6] = system: carboxylesterase 1 (CES1); details: cited from earlier work
[7] = Pharmacokinetics of ritonavir with and without clopidogrel; type: in vivo, human
[8] = cited from earlier work; remark: listed apart in the source
[9] = clopidogrel and ritonavir phase (ritonavir 100 mg twice daily)
[10] = clopidogrel and ritonavir phase

CCc1ccc(CCOc2ccc(CC3SC(=O)NC3=O)cc2)nc1 (stereo not shown) [pioglitazone]
increase of AUC of CYP2C8 substrate by gemfibrozil [1]: about 3 fold

O=C(O)C[C@H](O)C[C@H](O)/C=C/c1c(C2CC2)nc2ccccc2c1-c1ccc(F)cc1 [pitavastatin]
effect of clopidogrel on pharmacokinetics [2]: not affected

O=C(O)[C@H](c1ccccc1Cl)N1CCc2sccc2C1 [Clopidogrel carboxylic acid, clopidogrel carboxylic acid]
C max [3, 9]: 12,300 (34) ng/mL | AUC0‐4h [3, 10]: 27,800 (37) ng·h/mL | AUC0‐∞ [3, 10]: 41,600 (37) ng·h/mL | t ½ [3, 10]: 2.46 (12) h | t max [3, 10]: 0.92 (0.92–1.5) h | AUC0‐4h ([3]; clopidogrel phase): 26,800 (29) ng·h/mL | AUC0‐∞ ([3]; clopidogrel phase): 44,300 (26) ng·h/mL | C max ([3]; clopidogrel phase): 12,200 (22) ng/mL | t ½ ([3]; clopidogrel phase): 2.98 (21) h | t max ([3]; clopidogrel phase): 0.92 (0.92–1.5) h | AUC0‐4h, clopidogrel and ritonavir phase to clopidogrel phase ratio ([3]; geometric mean ratio (90% CI)): 1.04 (0.91–1.18) | AUC0‐∞, clopidogrel and ritonavir phase to clopidogrel phase ratio ([3]; geometric mean ratio (90% CI)): 0.94 (0.80–1.10) | C max, clopidogrel and ritonavir phase to clopidogrel phase ratio ([3]; geometric mean ratio (90% CI)): 1.01 (0.89–1.15) | t ½, clopidogrel and ritonavir phase to clopidogrel phase ratio ([3]; geometric mean ratio (90% CI)): 0.83 (0.72–0.95); P = 0.03

CC(C)(O)c1ccccc1CC[C@@H](SCC1(CC(=O)O)CC1)c1cccc(/C=C/c2ccc3ccc(Cl)cc3n2)c1 [montelukast]
increase of AUC of CYP2C8 substrate by gemfibrozil [1]: ~4.5 fold

COc1c(-c2ccc3cc(NS(C)(=O)=O)ccc3c2)cc(-n2ccc(=O)[nH]c2=O)cc1C(C)(C)C [Dasabuvir, dasabuvir, reference compound]
highest individual increase in AUC0‐∞, clopidogrel phase vs placebo phase ([4]; 12 subjects): > 10 fold | range of individual increases of AUC0‐∞ by clopidogrel compared with placebo ([4]; 12 subjects, clopidogrel phase vs placebo phase): 2.0–10.1 fold | t ½ ([4]; ritonavir phase): 8.22 (25) h | AUC0‐∞ in clopidogrel phase as % of that during placebo ([4]; geometric mean): 467% | AUC0‐∞ in clopidogrel–ritonavir phase as % of that during the ritonavir phase ([4]; geometric mean): 389% | C max in clopidogrel–ritonavir phase as % of that during the ritonavir phase ([4]; geometric mean): 182% | AUC0‐23h, clopidogrel and ritonavir phase to ritonavir phase ratio ([4]; geometric mean ratio (90% CI)): 3.13 (2.17–4.52) P = 0.00002 | AUC0‐∞, clopidogrel phase to placebo phase ratio ([4]; geometric mean ratio (90% CI)): 4.67 (3.23–6.74) P = 8·10^−7 | C max, clopidogrel and ritonavir phase to ritonavir phase ratio ([4]; geometric mean ratio (90% CI)): 1.82 (1.27–2.61) P = 0.004 | C max, clopidogrel phase to placebo phase ratio ([4]; geometric mean ratio (90% CI)): 1.63 (1.03–2.57) P = 0.07 | t ½, clopidogrel and ritonavir phase to ritonavir phase ratio ([4]; geometric mean ratio (90% CI)): 1.40 (1.14–1.73) P = 0.005 | t ½, clopidogrel phase to placebo phase ratio ([4]; geometric mean ratio (90% CI)): 1.84 (1.59–2.13) P = 1·10^−6 | contribution of CYP2C8 to metabolism ([4]; implied from clopidogrel interaction, both with and without ritonavir): exceed 80% | effect of ritonavir on pharmacokinetics compared to pretreatment with placebo [4]: did not cause significant changes | trend of lower concentrations in the ritonavir phase than in the placebo phase ([4]; statistically insignificant): –20% | prolongation of half‐life (t ½) by concomitant gemfibrozil ([1]; humans): 18 fold | increase of AUC by concomitant gemfibrozil ([1]; humans, during ritonavir coadministration): 11 fold | fraction metabolized by CYP2C8 ([1]; in the presence of the CYP3A4 inhibitor ritonavir): > 0.9 | share of overall metabolism for which CYP3A4 is responsible (CYP3A4): about 30% | PBPK-predicted increase of AUC by clopidogrel [5]: 1.9–2.8 fold | implied reduction in clearance by clopidogrel (PBPK prediction) [5]: 47–64%

COC(=O)[C@H](c1ccccc1Cl)N1CCc2sccc2C1 [Clopidogrel, clopidogrel, reference compound]
AUC0‐4h, clopidogrel and ritonavir phase to clopidogrel phase ratio ([3]; geometric mean ratio (90% CI)): 0.75 (0.40–1.44) | AUC0‐∞, clopidogrel and ritonavir phase to clopidogrel phase ratio ([3]; geometric mean ratio (90% CI)): 0.75 (0.39–1.43) | C max, clopidogrel and ritonavir phase to clopidogrel phase ratio ([3]; geometric mean ratio (90% CI)): 0.79 (0.40–1.57) | t ½, clopidogrel and ritonavir phase to clopidogrel phase ratio ([3]; geometric mean ratio (90% CI)): 0.89 (0.72–1.11) | Cmax ([3]; human, plasma, po, 300 mg): 4.49 ng/mL | AUC ([3]; human, plasma, po, 300 mg, AUC0‐4h, clopidogrel and ritonavir phase): 6.44 ng·h/mL | AUC ([3]; human, plasma, po, 300 mg, AUC0‐4h, clopidogrel phase): 8.53 ng·h/mL | AUC ([3]; human, plasma, po, 300 mg, AUC0‐∞, clopidogrel and ritonavir phase): 8.14 ng·h/mL | AUC ([3]; human, plasma, po, 300 mg, AUC0‐∞, clopidogrel phase): 10.8 ng·h/mL | half-life ([3]; human, plasma, po, 300 mg, clopidogrel and ritonavir phase): 106 min | half-life ([3]; human, plasma, po, 300 mg, clopidogrel phase): 119 min | Inhibition of platelet aggregation, average inhibition at 0‐24 h (platelet aggregation; [10]): 31 (28) % | Inhibition of platelet aggregation, maximal inhibition (platelet aggregation; [10]): 40 (29) % | Inhibition of platelet aggregation, average inhibition at 0‐24 h (platelet aggregation; clopidogrel phase): 51 (24) % | Inhibition of platelet aggregation, maximal inhibition (platelet aggregation; clopidogrel phase): 60 (23) % | fraction hydrolyzed by CES1 to inactive carboxylic acid metabolite [6]: About 90%

CC(C)c1nc(CN(C)C(=O)N[C@H](C(=O)N[C@@H](Cc2ccccc2)C[C@H](O)[C@H](Cc2ccccc2)NC(=O)OCc2cncs2)C(C)C)cs1 [Ritonavir, ritonavir]
t max ([7]; clopidogrel and ritonavir phase, median (range)): 3.0 h | t ½ during coadministration of clopidogrel as % of that in the ritonavir phase ([7]; geometric mean): 112% | t max ([7]; human, plasma, oral): 1.75 h

COc1c(-c2ccc3cc(NS(C)(=O)=O)ccc3c2)cc(-n2ccc(=O)[nH]c2=O)cc1C(C)(C)CO [M1]
t max [4, 10]: 4.0 (3.0–23) h | M1:dasabuvir AUC0‐23h ratio ([4]; clopidogrel phase): 0.0102 (42) | M1:dasabuvir AUC0‐∞ ratio ([4]; clopidogrel phase): 0.0135 (32) | t ½ ([4]; clopidogrel phase): 17.3 (23) h | t max ([4]; clopidogrel phase): 4.0 (3.0–23) h | M1:dasabuvir AUC0‐23h ratio ([4]; placebo phase): 0.0795 (28) | M1:dasabuvir AUC0‐∞ ratio ([4]; placebo phase): 0.0774 (29) | t ½ ([4]; placebo phase): 7.87 (32) h | t max ([4]; placebo phase): 4.0 (2.0–4.0) h | M1:dasabuvir AUC0‐23h ratio ([4]; ritonavir phase): 0.0888 (35) | M1:dasabuvir AUC0‐∞ ratio ([4]; ritonavir phase): 0.0786 (38) | t ½ ([4]; ritonavir phase): 7.35 (25) h | t max ([4]; ritonavir phase): 4.0 (3.0–6.0) h | AUC0‐23h in clopidogrel phase as % of that during placebo phase ([4]; geometric mean): 41% | AUC0‐23h in clopidogrel–ritonavir phase as % of that during the ritonavir phase ([4]; geometric mean): 48% | C max in clopidogrel phase as % of that in the placebo phase ([4]; geometric mean): 20% | C max in clopidogrel–ritonavir phase as % of that during the ritonavir phase ([4]; geometric mean): 22% | M1:dasabuvir AUC0‐∞ ratio in clopidogrel phase as % of that with placebo ([4]; geometric mean): 17% | AUC0‐23h, clopidogrel and ritonavir phase to ritonavir phase ratio ([4]; geometric mean ratio (90% CI)): 0.48 (0.32–0.71) P = 0.002 | AUC0‐23h, clopidogrel phase to placebo phase ratio ([4]; geometric mean ratio (90% CI)): 0.41 (0.26–0.65) P = 0.001 | C max, clopidogrel and ritonavir phase to ritonavir phase ratio ([4]; geometric mean ratio (90% CI)): 0.22 (0.13–0.36) P = 0.00002 | C max, clopidogrel phase to placebo phase ratio ([4]; geometric mean ratio (90% CI)): 0.20 (0.11–0.36) P = 0.00006 | M1:dasabuvir AUC0‐23h ratio, clopidogrel and ritonavir phase to ritonavir phase ratio ([4]; geometric mean ratio (90% CI)): 0.14 (0.12–0.17) P = 5·10^−11 | M1:dasabuvir AUC0‐23h ratio, clopidogrel phase to placebo phase ratio ([4]; geometric mean ratio (90% CI)): 0.13 (0.11–0.15) P = 5·10^−12 | M1:dasabuvir AUC0‐∞ ratio, clopidogrel and ritonavir phase to ritonavir phase ratio ([4]; geometric mean ratio (90% CI)): 0.20 (0.17–0.25) P = 5·10^−10 | M1:dasabuvir AUC0‐∞ ratio, clopidogrel phase to placebo phase ratio ([4]; geometric mean ratio (90% CI)): 0.17 (0.16–0.19) P = 2·10^−14 | t ½, clopidogrel and ritonavir phase to ritonavir phase ratio ([4]; geometric mean ratio (90% CI)): 1.92 (1.57–2.34) P = 0.00001 | t ½, clopidogrel phase to placebo phase ratio ([4]; geometric mean ratio (90% CI)): 2.20 (1.72–2.81) P = 0.00001 | effect of ritonavir on pharmacokinetics compared to pretreatment with placebo [4]: did not cause significant changes

COC(=O)[C@H](c1ccccc1Cl)N1CC[C@@H](S)/C(=C\C(=O)O)C1 [Clopidogrel active metabolite]
decrease of AUC by ketoconazole [8]: 22–29% | C max [3, 9]: 6.77 (140) ng/mL | AUC0‐4h [3, 10]: 9.16 (150) ng·h/mL | AUC0‐∞ [3, 10]: 14.9 (170) ng·h/mL | t ½ [3, 10]: 0.89 (90) h | t max [3, 10]: 0.92 (0.92–1.5) h | AUC0‐4h ([3]; clopidogrel phase): 18.7 (77) ng·h/mL | AUC0‐∞ ([3]; clopidogrel phase): 19.3 (79) ng·h/mL | C max ([3]; clopidogrel phase): 13.0 (72) ng/mL | t ½ ([3]; clopidogrel phase): 1.05 (58) h | t max ([3]; clopidogrel phase): 0.92 (0.92–1.5) h | Clopidogrel active metabolite: clopidogrel AUC0‐∞ ratio [3, 10]: 1.83 (200) | Clopidogrel active metabolite: clopidogrel AUC0‐∞ ratio ([3]; clopidogrel phase): 1.79 (110) | AUC0‐4h in clopidogrel–ritonavir phase as % of that in the clopidogrel phase ([3]; geometric mean): 49% | C max in clopidogrel–ritonavir phase as % of that in the clopidogrel phase ([3]; geometric mean): 52% | AUC0‐4h, clopidogrel and ritonavir phase to clopidogrel phase ratio ([3]; geometric mean ratio (90% CI)): 0.49 (0.39–0.61); P = 0.0001 | AUC0‐∞, clopidogrel and ritonavir phase to clopidogrel phase ratio ([3]; geometric mean ratio (90% CI)): 0.77 (0.59–1.00) | C max, clopidogrel and ritonavir phase to clopidogrel phase ratio ([3]; geometric mean ratio (90% CI)): 0.52 (0.41–0.65); P = 0.0003 | Clopidogrel active metabolite: clopidogrel AUC0‐∞ ratio, clopidogrel and ritonavir phase to clopidogrel phase ratio ([3]; geometric mean ratio (90% CI)): 1.03 (0.53–1.97) | t ½, clopidogrel and ritonavir phase to clopidogrel phase ratio ([3]; geometric mean ratio (90% CI)): 0.85 (0.66–1.08)

CCOc1cc(CC(=O)N[C@@H](CC(C)C)c2ccccc2N2CCCCC2)ccc1C(=O)O [repaglinide]
increase of AUC of CYP2C8 substrate by gemfibrozil [1]: ~8 fold

O=C(O)[C@H]1O[C@@H](OC(=O)[C@H](c2ccccc2Cl)N2CCc3sccc3C2)[C@H](O)[C@@H](O)[C@@H]1O [Clopidogrel acyl‐β‐D‐glucuronide, clopidogrel acyl‐β‐D‐glucuronide]
C max [3, 9]: 1,610 (43) ng/mL | AUC0‐4h [3, 10]: 4,030 (45) ng·h/mL | AUC0‐∞ [3, 10]: 6,430 (46) ng·h/mL | t ½ [3, 10]: 2.02 (8.5) h | t max [3, 10]: 1.5 (1.5–3.0) h | AUC0‐4h ([3]; clopidogrel phase): 3,630 (56) ng·h/mL | AUC0‐∞ ([3]; clopidogrel phase): 6,840 (53) ng·h/mL | C max ([3]; clopidogrel phase): 1,420 (57) ng/mL | t ½ ([3]; clopidogrel phase): 2.83 (19) h | t max ([3]; clopidogrel phase): 1.75 (0.92–2.0) h | AUC0‐4h, clopidogrel and ritonavir phase to clopidogrel phase ratio ([3]; geometric mean ratio (90% CI)): 1.11 (0.86–1.43) | AUC0‐∞, clopidogrel and ritonavir phase to clopidogrel phase ratio ([3]; geometric mean ratio (90% CI)): 0.94 (0.71–1.23) | C max, clopidogrel and ritonavir phase to clopidogrel phase ratio ([3]; geometric mean ratio (90% CI)): 1.13 (0.86–1.47) | t ½, clopidogrel and ritonavir phase to clopidogrel phase ratio ([3]; geometric mean ratio (90% CI)): 0.71 (0.63–0.81); P = 0.0007
